Measurements taken from the NIST ThermoML archive (doi:10.1016/j.jct.2008.05.014).
± gives the expanded uncertainty stated by the source.

Assay: xn = mol fraction of the nth substance listed
Details: Liquid; for speed of sound: Pulse-echo method

CCCCCCCCCCCC [dodecane] + CCCCCCC
Details | mass density [kg/m3] | speed of sound [m/s]
292.85 K, 15200 kPa, x2 = 0.4999 | – | 1334.1 ± 2.4
292.85 K, 15200 kPa, x2 = 0.97 | – | 1263.4 ± 2.4
292.85 K, 30390 kPa, x2 = 0.4999 | – | 1411.6 ± 2.4
292.85 K, 30390 kPa, x2 = 0.97 | – | 1348.3 ± 2.4
292.85 K, 45590 kPa, x2 = 0.4999 | – | 1480.8 ± 2.4
292.85 K, 60790 kPa, x2 = 0.4999 | – | 1543.7 ± 2.5
292.85 K, 60790 kPa, x2 = 0.97 | – | 1490.4 ± 2.5
292.85 K, 75990 kPa, x2 = 0.4999 | – | 1602.4 ± 2.5
292.85 K, 75990 kPa, x2 = 0.97 | – | 1552 ± 2.5
292.85 K, 91180 kPa, x2 = 0.4999 | – | 1656.6 ± 2.5
292.85 K, 91180 kPa, x2 = 0.97 | – | 1609.5 ± 2.6
292.85 K, 101320 kPa, x2 = 0.4999 | – | 1690.5 ± 2.6
292.86 K, 15200 kPa, x2 = 0.5003 | – | 1333.8 ± 2.4
292.86 K, 15200 kPa, x2 = 0.9391 | – | 1268.7 ± 2.4
292.86 K, 30390 kPa, x2 = 0.1014 | – | 1449.6 ± 2.4
292.86 K, 30390 kPa, x2 = 0.5003 | – | 1411.4 ± 2.4
292.86 K, 30410 kPa, x2 = 0.9391 | – | 1352.9 ± 2.4
292.86 K, 45590 kPa, x2 = 0.1014 | – | 1516.2 ± 2.4
292.86 K, 45590 kPa, x2 = 0.5003 | – | 1480.8 ± 2.4
292.86 K, 45590 kPa, x2 = 0.9391 | – | 1427.3 ± 2.4
292.86 K, 45590 kPa, x2 = 0.97 | – | 1423.1 ± 2.4
292.86 K, 60790 kPa, x2 = 0.1014 | – | 1577 ± 2.5
292.86 K, 60790 kPa, x2 = 0.5003 | – | 1543.8 ± 2.5
292.86 K, 60790 kPa, x2 = 0.9391 | – | 1494.1 ± 2.5
292.86 K, 75990 kPa, x2 = 0.1014 | – | 1633.6 ± 2.5
292.86 K, 75990 kPa, x2 = 0.5003 | – | 1602.5 ± 2.5
292.86 K, 75990 kPa, x2 = 0.9391 | – | 1555.3 ± 2.5
292.86 K, 91180 kPa, x2 = 0.1014 | – | 1686.1 ± 2.5
292.86 K, 91180 kPa, x2 = 0.5003 | – | 1656.8 ± 2.5
292.86 K, 91180 kPa, x2 = 0.9391 | – | 1612.7 ± 2.6
292.86 K, 101320 kPa, x2 = 0.1014 | – | 1719.2 ± 2.6
292.86 K, 101320 kPa, x2 = 0.9391 | – | 1647.3 ± 2.6
292.86 K, 101320 kPa, x2 = 0.97 | – | 1645.4 ± 2.6
292.87 K, 15200 kPa, x2 = 0 | – | 1384.9 ± 2.4
292.87 K, 15200 kPa, x2 = 0.1014 | – | 1375.7 ± 2.4
292.87 K, 15200 kPa, x2 = 0.3007 | – | 1355.3 ± 2.4
292.87 K, 15200 kPa, x2 = 0.7007 | – | 1306.2 ± 2.4
292.87 K, 30390 kPa, x2 = 0 | – | 1457.9 ± 2.4
292.87 K, 30390 kPa, x2 = 0.3007 | – | 1430.9 ± 2.4
292.87 K, 30390 kPa, x2 = 0.7007 | – | 1386.2 ± 2.4
292.87 K, 45590 kPa, x2 = 0 | – | 1524.1 ± 2.4
292.87 K, 45590 kPa, x2 = 0.3007 | – | 1498.8 ± 2.4
292.87 K, 45590 kPa, x2 = 0.7007 | – | 1457.9 ± 2.4
292.87 K, 60790 kPa, x2 = 0 | – | 1584.5 ± 2.5
292.87 K, 60790 kPa, x2 = 0.3007 | – | 1560.6 ± 2.5
292.87 K, 60790 kPa, x2 = 0.7007 | – | 1522.8 ± 2.5
292.87 K, 75990 kPa, x2 = 0 | – | 1640.7 ± 2.5
292.87 K, 75990 kPa, x2 = 0.3007 | – | 1618.5 ± 2.5
292.87 K, 75990 kPa, x2 = 0.7007 | – | 1582.4 ± 2.5
292.87 K, 91180 kPa, x2 = 0 | – | 1692.8 ± 2.5
292.87 K, 91180 kPa, x2 = 0.3007 | – | 1671.5 ± 2.5
292.87 K, 91180 kPa, x2 = 0.7007 | – | 1638 ± 2.6
292.87 K, 101320 kPa, x2 = 0 | – | 1725.8 ± 2.6
292.87 K, 101320 kPa, x2 = 0.3007 | – | 1705.1 ± 2.6
292.87 K, 101320 kPa, x2 = 0.5003 | – | 1691 ± 2.6
292.87 K, 101320 kPa, x2 = 0.7007 | – | 1672.6 ± 2.6
292.87 K, 101320 kPa, x2 = 0.8496 | – | 1658.6 ± 2.6
292.88 K, 15200 kPa, x2 = 0.8496 | – | 1284 ± 2.4
292.88 K, 75990 kPa, x2 = 0.8496 | – | 1566.3 ± 2.5
292.89 K, 101 kPa, x2 = 0 | – | 1299.5 ± 1.6
292.89 K, 101 kPa, x2 = 0.3002 | – | 1267.5 ± 1.6
292.89 K, 101 kPa, x2 = 0.3996 | – | 1255 ± 1.6
292.89 K, 101 kPa, x2 = 0.6 | – | 1226.8 ± 1.6
292.89 K, 101 kPa, x2 = 0.7002 | – | 1210.7 ± 1.6
292.89 K, 101 kPa, x2 = 0.8995 | – | 1174.4 ± 1.6
292.89 K, 30390 kPa, x2 = 0.8496 | – | 1366.5 ± 2.4
292.89 K, 45590 kPa, x2 = 0.8496 | – | 1439.7 ± 2.4
292.89 K, 60790 kPa, x2 = 0.8496 | – | 1505.9 ± 2.5
292.89 K, 91180 kPa, x2 = 0.8496 | – | 1623.3 ± 2.6
292.9 K, 101 kPa, x2 = 0.8 | – | 1193.4 ± 1.6
292.91 K, 101 kPa, x2 = 0.1007 | – | 1289.6 ± 1.6
292.91 K, 101 kPa, x2 = 0.2001 | – | 1279 ± 1.6
292.91 K, 101 kPa, x2 = 0.5002 | – | 1241.3 ± 1.6
293.15 K, 101 kPa, x2 = 0 | 748.921 ± 0.63 | –
293.15 K, 101 kPa, x2 = 0.0991 | 744.788 ± 0.63 | –
293.15 K, 101 kPa, x2 = 0.2008 | 740.186 ± 0.64 | –
293.15 K, 101 kPa, x2 = 0.2998 | 735.319 ± 0.65 | –
293.15 K, 101 kPa, x2 = 0.3996 | 729.97 ± 0.65 | –
293.15 K, 101 kPa, x2 = 0.5 | 724.072 ± 0.66 | –
293.15 K, 101 kPa, x2 = 0.6 | 717.632 ± 0.67 | –
293.15 K, 101 kPa, x2 = 0.7005 | 710.489 ± 0.68 | –
293.15 K, 101 kPa, x2 = 0.7995 | 702.66 ± 0.69 | –
293.15 K, 101 kPa, x2 = 0.8486 | 698.428 ± 0.69 | –
293.15 K, 101 kPa, x2 = 0.8988 | 693.851 ± 0.7 | –
293.15 K, 101 kPa, x2 = 0.9498 | 688.947 ± 0.7 | –
298.14 K, 30390 kPa, x2 = 0.97 | – | 1329.4 ± 2.4
298.14 K, 30410 kPa, x2 = 0.9391 | – | 1333.2 ± 2.4
298.14 K, 45590 kPa, x2 = 0.9391 | – | 1408.7 ± 2.4
298.14 K, 45590 kPa, x2 = 0.97 | – | 1405.4 ± 2.4
298.14 K, 60790 kPa, x2 = 0.9391 | – | 1476.6 ± 2.5
298.14 K, 60790 kPa, x2 = 0.97 | – | 1473.9 ± 2.5
298.14 K, 75990 kPa, x2 = 0.97 | – | 1536.2 ± 2.5
298.14 K, 91180 kPa, x2 = 0.9391 | – | 1596.4 ± 2.6
298.14 K, 91180 kPa, x2 = 0.97 | – | 1594.1 ± 2.6
298.14 K, 101320 kPa, x2 = 0.9391 | – | 1632.6 ± 2.6
298.14 K, 101320 kPa, x2 = 0.97 | – | 1630.6 ± 2.6
298.15 K, 101 kPa, x2 = 0 | 745.269 ± 0.63 | –
298.15 K, 101 kPa, x2 = 0.0991 | 741.128 ± 0.64 | –
298.15 K, 101 kPa, x2 = 0.2008 | 736.497 ± 0.64 | –
298.15 K, 101 kPa, x2 = 0.2998 | 731.58 ± 0.65 | –
298.15 K, 101 kPa, x2 = 0.5 | 720.233 ± 0.67 | –
298.15 K, 101 kPa, x2 = 0.7005 | 706.501 ± 0.68 | –
298.15 K, 101 kPa, x2 = 0.7995 | 698.598 ± 0.69 | –
298.15 K, 101 kPa, x2 = 0.8486 | 694.34 ± 0.7 | –
298.15 K, 101 kPa, x2 = 0.8988 | 689.718 ± 0.7 | –
298.15 K, 101 kPa, x2 = 0.9498 | 684.775 ± 0.71 | –
298.15 K, 15200 kPa, x2 = 0.5003 | – | 1314.6 ± 2.4
298.15 K, 15200 kPa, x2 = 0.9391 | – | 1247.1 ± 2.4
298.15 K, 15200 kPa, x2 = 0.97 | – | 1242.9 ± 2.4
298.15 K, 30390 kPa, x2 = 0.4999 | – | 1393.4 ± 2.4
298.15 K, 30390 kPa, x2 = 0.5003 | – | 1393.3 ± 2.4
298.15 K, 45590 kPa, x2 = 0.1014 | – | 1499.1 ± 2.4
298.15 K, 45590 kPa, x2 = 0.4999 | – | 1464 ± 2.4
298.15 K, 45590 kPa, x2 = 0.5003 | – | 1464.1 ± 2.4
298.15 K, 45590 kPa, x2 = 0.7007 | – | 1440.8 ± 2.4
298.15 K, 60790 kPa, x2 = 0.1014 | – | 1560.5 ± 2.5
298.15 K, 60790 kPa, x2 = 0.3007 | – | 1544.4 ± 2.5
298.15 K, 60790 kPa, x2 = 0.4999 | – | 1527.7 ± 2.5
298.15 K, 60790 kPa, x2 = 0.5003 | – | 1528 ± 2.5
298.15 K, 60790 kPa, x2 = 0.7007 | – | 1506.5 ± 2.5
298.15 K, 75990 kPa, x2 = 0.1014 | – | 1618.2 ± 2.5
298.15 K, 75990 kPa, x2 = 0.4999 | – | 1586.8 ± 2.5
298.15 K, 75990 kPa, x2 = 0.5003 | – | 1587 ± 2.5
298.15 K, 75990 kPa, x2 = 0.7007 | – | 1566.5 ± 2.5
298.15 K, 75990 kPa, x2 = 0.9391 | – | 1538.7 ± 2.5
298.15 K, 91180 kPa, x2 = 0.1014 | – | 1671 ± 2.5
298.15 K, 91180 kPa, x2 = 0.4999 | – | 1641.7 ± 2.6
